Results taken from US10294236B2, “Compounds as rearranged during transfection (RET) inhibitors” (GLAXOSMITHKLINE INTELLECTUAL PROPERTY DEVELOPMENT LIMITED, priority 2014, dated 2019).

What follows are compounds tested against T1, Human RET kinase cytoplasmic domain (Homo sapiens, UniProt P07949) (assay: RET kinase enzymatic assay).
T1 construct: made in house
T1 sequence (P07949 658-1114): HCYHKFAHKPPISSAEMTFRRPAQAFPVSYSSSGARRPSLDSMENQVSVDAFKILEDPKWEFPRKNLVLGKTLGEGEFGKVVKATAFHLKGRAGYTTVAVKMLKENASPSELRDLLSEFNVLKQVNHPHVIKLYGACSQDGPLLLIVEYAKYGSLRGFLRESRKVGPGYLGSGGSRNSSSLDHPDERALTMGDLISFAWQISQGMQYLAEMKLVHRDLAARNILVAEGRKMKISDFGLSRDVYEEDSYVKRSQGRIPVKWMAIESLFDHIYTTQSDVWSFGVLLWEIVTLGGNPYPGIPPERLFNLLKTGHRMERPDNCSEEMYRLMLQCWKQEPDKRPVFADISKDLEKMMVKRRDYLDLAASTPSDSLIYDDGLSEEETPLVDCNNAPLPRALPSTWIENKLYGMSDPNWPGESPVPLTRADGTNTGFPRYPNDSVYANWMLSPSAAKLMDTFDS
Format: biochemical
Procedure: GST-RET was purified using glutathione sepharose chromatography. The RET kinase enzymatic assay was performed in a total volume of 10 uL with increasing concentrations of RET kinase inhibitor as a singlet in a 384 well format as follows: RET inhibitor compound plates are prepared by adding 100 nL of RET inhibitor at different concentrations to a 384-well plate. 5 μL/well of a 2× enzyme mix (50 mM HEPES (4-(2-hydroxyethyl)-1-piperazineethanesulfonic acid); 1 mM CHAPS (3-[(3-cholamidopropyl)dimethylammonio]-1-propanesulfonate); 0.1 mg/mL BSA (bovine serum albumin); 1 mM DTT (dithiothreitol); 0.2 nM RET kinase) was added to the 384-well plate and incubated for 30 minutes at 23° C. 5 µL/well of a 2× substrate mix (50 mM HEPES; 1 mM CHAPS; 0.1 mg/mL BSA; 20 μM adenosine triphosphate; 20 mM MgCl2 and 1 μM biotinylated peptide substrate) was added and incubated for 1 hour at 23° C. […] IC50s were fitted using GraphPad Prism to a sigmoidal dose response.

Structure (SMILES) | IC50 [nM]
CC1(Oc2ccc(NC(=O)Nc3ccc(-c4c[nH]c(=O)c5occc45)cc3F)cc2C(F)(F)F)COC1 [Example 1, 1-(2-Fluoro-4-(7-oxo-6,7-dihydrofuro[2,3-c]pyridin-4-yl)phenyl)-3-(4-((3-methyloxetan-3-yl)oxy)-3-(trifluoromethyl)phenyl)urea] | < 100
CCOc1cc(-c2ccc(NC(=O)Nc3cc(-n4cnc(C)c4)cc(C(F)(F)F)c3)c(F)c2)c[nH]c1=O [Example 2, 1-(4-(5-Ethoxy-6-oxo-1,6-dihydropyridin-3-yl)-2-fluorophenyl)-3-(3-(4-methyl-1H-imidazol-1-yl)-5-(trifluoromethyl)phenyl)urea] | < 100
CCOc1ccc(NC(=O)Nc2ccc(-c3c[nH]c(=O)c4c3CCC4)cc2F)cc1C(F)(F)F [Example 3, 1-(4-Ethoxy-3-(trifluoromethyl)phenyl)-3-(2-fluoro-4-(1-oxo-2,5,6,7-tetrahydro-1H-cyclopenta[c]pyridin-4-yl)phenyl)urea] | < 100
CC1(Oc2ccc(NC(=O)Nc3ccc(-c4c[nH]c(=O)c5cn[nH]c45)cc3F)cc2C(F)(F)F)COC1 [Example 4, 1-(2-Fluoro-4-(4-oxo-4,5-dihydro-1H-pyrazolo[4,3-c]pyridin-7-yl)phenyl)-3-(4-((3-methyloxetan-3-yl)oxy)-3-(trifluoromethyl)phenyl)urea] | < 100
CCOc1cc(-c2ccc(NC(=O)Nc3ccc(OC(C)C)c(C(F)(F)F)c3)c(C)n2)c[nH]c1=O [Example 5, 1-(5′-Ethoxy-6-methyl-6′-oxo-1′,6′-dihydro-[2,3′-bipyridin]-5-yl)-3-(4-isopropoxy-3-(trifluoromethyl)phenyl)urea] | < 100
CCOc1cc(-c2ccc(NC(=O)Nc3ccc(OC(C)C)c(C(F)F)c3)c(C)n2)c[nH]c1=O [Example 6, 1-(3-(Difluoromethyl)-4-isopropoxyphenyl)-3-(5′-ethoxy-6-methyl-6′-oxo-1′,6′-dihydro-[2,3′-bipyridin]-5-yl)urea] | < 100
Cc1cc(-c2ccc(NC(=O)Nc3ccc(OC4(C)COC4)c(C(F)(F)F)c3)c(F)c2)c[nH]c1=O [Example 7, 1-(2-fluoro-4-(5-methyl-6-oxo-1,6-dihydropyridin-3-yl)phenyl)-3-(4-((3-methyloxetan-3-yl)oxy)-3-(trifluoromethyl)phenyl)urea] | < 100
CCOc1cc(-c2ccc(NC(=O)Nc3ccc(OC(C)C)c(C(F)(F)F)c3)nc2C)c[nH]c1=O [Example 8, 1-(5′-Ethoxy-2-methyl-6′-oxo-1′,6′-dihydro-[3,3′-bipyridin]-6-yl)-3-(4-isopropoxy-3-(trifluoromethyl)phenyl)urea] | < 100
CCOc1cc(-c2cnc(NC(=O)Nc3ccc(CC(C)(C)CO)c(C(F)(F)F)c3)c(C)c2)c[nH]c1=O [Example 9, 1-(5′-Ethoxy-5-methyl-6′-oxo-1′,6′-dihydro-[3,3′-bipyridin]-6-yl)-3-(4-(3-hydroxy-2,2-dimethylpropyl)-3-(trifluoromethyl)phenyl)urea] | < 100
CCOc1cc(-c2ncc(NC(=O)Nc3ccc(C(C)O)c(C(F)(F)F)c3)c(C)n2)c[nH]c1=O (centres unmarked) [Example 10, 1-(2-(5-Ethoxy-6-oxo-1,6-dihydropyridin-3-yl)-4-methylpyrimidin-5-yl)-3-(4-(1-hydroxyethyl)-3-(trifluoromethyl)phenyl)urea] | < 100
CCOc1cc(-c2ccc(NC(=O)Nc3cc(C(C)(C)C(F)(F)F)on3)c(F)c2)c[nH]c1=O [Example 11, 1-(4-(5-Ethoxy-6-oxo-1,6-dihydropyridin-3-yl)-2-fluorophenyl)-3-(5-(1,1,1-trifluoro-2-methylpropan-2-yl)isoxazol-3-yl)urea] | < 100
CCOc1cc(=O)[nH]cc1-c1ncc(NC(=O)Nc2ccc(CC3(C)COC3)c(C(F)(F)F)c2)c(C)n1 [Example 12, 1-(2-(4-Ethoxy-6-oxo-1,6-dihydropyridin-3-yl)-4-methylpyrimidin-5-yl)-3-(4-((3-methyloxetan-3-yl)methyl)-3-(trifluoromethyl)phenyl)urea] | < 100
CCOc1cc(-c2ncc(NC(=O)Nc3ccc(CC4(C)COC4)c(C(F)(F)F)c3)c(C)n2)c[nH]c1=O [Example 13, 1-(2-(5-Ethoxy-6-oxo-1,6-dihydropyridin-3-yl)-4-methylpyrimidin-5-yl)-3-(4-((3-methyloxetan-3-yl)methyl)-3-(trifluoromethyl)phenyl)urea] | < 100
CCOc1cc(-c2ncc(NC(=O)Nc3ccc(CC(C)(C)C#N)c(C(F)(F)F)c3)c(C)n2)c[nH]c1=O [Example 14, 1-(4-(2-Cyano-2-methylpropyl)-3-(trifluoromethyl)phenyl)-3-(2-(5-ethoxy-6-oxo-1,6-dihydropyridin-3-yl)-4-methylpyrimidin-5-yl)urea] | < 100
CCOc1cc(-c2ncc(NC(=O)Nc3cc(C(C)(C)C(F)(F)F)on3)c(C)n2)c[nH]c1=O [Example 15, 1-(2-(5-Ethoxy-6-oxo-1,6-dihydropyridin-3-yl)-4-methylpyrimidin-5-yl)-3-(5-(1,1,1-trifluoro-2-methylpropan-2-yl)isoxazol-3-yl)urea] | < 100
CCOc1cc(-c2cnc(NC(=O)Nc3cc(C(C)(C)C(F)(F)F)on3)c(C)n2)c[nH]c1=O [Example 16, 1-(5-(5-Ethoxy-6-oxo-1,6-dihydropyridin-3-yl)-3-methylpyrazin-2-yl)-3-(5-(1,1,1-trifluoro-2-methylpropan-2-yl)isoxazol-3-yl)urea] | < 100
O=C(Nc1ccc(-c2ccc(=O)[nH]c2)cc1)Nc1ccc(CN2CCNCC2)c(C(F)(F)F)c1 [Example 17, 1-(4-(6-Oxo-1,6-dihydropyridin-3-yl)phenyl)-3-(4-(piperazin-1-ylmethyl)-3-(trifluoromethyl)phenyl)urea] | < 100
CCOc1cc(=O)[nH]cc1-c1ccc(NC(=O)Nc2ccc(OC3(C)COC3)c(C(F)(F)F)c2)c(F)c1 [Example 18, 1-(4-(4-Ethoxy-6-oxo-1,6-dihydropyridin-3-yl)-2-fluorophenyl)-3-(4-((3-methyloxetan-3-yl)oxy)-3-(trifluoromethyl)phenyl)urea] | < 100
CC1(Oc2ccc(NC(=O)Nc3ccc(-c4c[nH]c(=O)c5ccoc45)cc3F)cc2C(F)(F)F)COC1 [Example 19, 1-(2-Fluoro-4-(4-oxo-4,5-dihydrofuro[3,2-c]pyridin-7-yl)phenyl)-3-(4-((3-methyloxetan-3-yl)oxy)-3-(trifluoromethyl)phenyl)urea] | < 100
CC1(Oc2ccc(NC(=O)Nc3ccc(-c4c[nH]c(=O)c(OC5CC5)c4)cc3F)cc2C(F)(F)F)COC1 [Example 20, 1-(4-(5-Cyclopropoxy-6-oxo-1,6-dihydropyridin-3-yl)-2-fluorophenyl)-3-(4-((3-methyloxetan-3-yl)oxy)-3-(trifluoromethyl)phenyl)urea] | < 100
COc1cc(-c2ccc(NC(=O)Nc3ccc(OC4(C)COC4)c(C(F)(F)F)c3)cc2)c[nH]c1=O [Example 21, 1-(4-(5-Methoxy-6-oxo-1,6-dihydropyridin-3-yl)phenyl)-3-(4-((3-methyloxetan-3-yl)oxy)-3-(trifluoromethyl)phenyl)urea] | < 100
CC1(Oc2ccc(NC(=O)Nc3ccc(-c4c[nH]c(=O)c5c4OCC5)cc3F)cc2C(F)(F)F)COC1 [Example 22, 1-(2-Fluoro-4-(4-oxo-2,3,4,5-tetrahydrofuro[3,2-c]pyridin-7-yl)phenyl)-3-(4-((3-methyloxetan-3-yl)oxy)-3-(trifluoromethyl)phenyl)urea] | < 100
CCOc1cc(-c2ncc(NC(=O)Nc3ccc(C(C)(C)C#N)c(C(F)(F)F)c3)c(C)n2)c[nH]c1=O [Example 23, 1-(4-(2-Cyanopropan-2-yl)-3-(trifluoromethyl)phenyl)-3-(2-(5-ethoxy-6-oxo-1,6-dihydropyridin-3-yl)-4-methylpyrimidin-5-yl)urea] | < 100
CCOc1cc(=O)[nH]cc1-c1ncc(NC(=O)Nc2ccc(C(C)C#N)c(C(F)(F)F)c2)c(C)n1 (centres unmarked) [Example 24, 1-(4-(1-Cyanoethyl)-3-(trifluoromethyl)phenyl)-3-(2-(4-ethoxy-6-oxo-1,6-dihydropyridin-3-yl)-4-methylpyrimidin-5-yl)urea] | < 100
CCOc1cc(-c2ncc(NC(=O)Nc3ccc(C(C)C#N)c(C(F)(F)F)c3)c(C)n2)c[nH]c1=O (centres unmarked) [Example 25, 1-(4-(1-Cyanoethyl)-3-(trifluoromethyl)phenyl)-3-(2-(5-ethoxy-6-oxo-1,6-dihydropyridin-3-yl)-4-methylpyrimidin-5-yl)urea] | < 100
CCOc1cc(=O)[nH]cc1-c1ncc(NC(=O)Nc2ccc(C(C)(C)C#N)c(C(F)(F)F)c2)c(C)n1 [Example 26, 1-(4-(2-Cyanopropan-2-yl)-3-(trifluoromethyl)phenyl)-3-(2-(4-ethoxy-6-oxo-1,6-dihydropyridin-3-yl)-4-methylpyrimidin-5-yl)urea] | < 100
